Patent US20250304620A1, “ANTIMICROBIAL PEPTIDE AND APPLICATION THEREOF” (priority 2023, published 2025)
Marks after values point to notes of the source that are not given here. Non-standard residues stand in square brackets, D forms with d. PEG200 = polyethylene glycol 200, conjugated to the C-terminus; PEG500 = polyethylene glycol 500, conjugated to the C-terminus; 2Nal = N[C@@H](Cc1ccc2ccccc2c1)C(=O)O

Legend:
[1] = test system: Bacillus subtilis ATCC 6633; assay type: cell-based
Text: (§1) According to the Standards of Clinical and Laboratory Standards Institute (CLSI) of the USA for antimicrobial drug susceptibility test operation standards, the micronutrient serial twofold dilution method was used further determine MICs of 30 AMPs (S/N: LV-1 to LV-30) 10 clinically common sensitive strains and 6 fungi in clinical practice. The experiment was repeated 5 times in parallel.

[2] = test system: Candida albicans ATCC MYA-2876; assay type: cell-based
Text: as §1

[3] = test system: Candida glabrata ATCC 15126; assay type: cell-based
Text: as §1

Candida krusei ATCC 6258 = assay type: cell-based
Text: as §1

Candida utilis ATCC 9950 = assay type: cell-based
Text: as §1

[4] = test system: Corynebacterium ATCC 7715; assay type: cell-based
Text: as §1

[5] = test system: Klebsiella pneumoniae ATCC 700603; assay type: cell-based
Text: as §1

[6] = test system: Pseudomonas aeruginosa ATCC 27853; assay type: cell-based
Text: as §1

[7] = test system: Salmonella typhimurium ATCC 14028; assay type: cell-based
Text: as §1

[8] = test system: Serratia marcescens ATCC 29021; assay type: cell-based
Text: as §1

[9] = test system: Staphylococcus aureus ATCC 25923; assay type: cell-based
Text: as §1

[10] = test system: Shigella flexneri ATCC 12022; test: MIC against clinically common bacterial strain; assay type: cell-based
Text: as §1

[11] = test system: Methicillin-resistant Staphylococcus aureus (MRSA); assay type: cell-based; details: drug-resistant strain MRSA
Text: (§2) According to the Standards of Clinical and Laboratory Standards Institute (CLSI) of the USA for antimicrobial drug susceptibility test operation standards, the micronutrient serial twofold dilution method was used further determine MICs of the antimicrobial peptides LV-1 to LV-30 against 5 clinically common drug-resistant bacterial strains. The experiment was repeated 5 times in parallel. […] The tested drug-resistant strains included Methicillin-resistant Staphylococcus aureus (MRSA), carbapenem-resistant Escherichia coli (CREC), vancomycin-resistant Enterococcus (VRE), carbapenem-resistant Pseudomonas aeruginosa (CRPA), and carbapenem-resistant Klebsiella pneumoniae (CRKP).

[12] = test system: carbapenem-resistant Escherichia coli (CREC); assay type: cell-based; details: drug-resistant strain CREC
Text: as §2

[13] = test system: carbapenem-resistant Klebsiella pneumoniae (CRKP); assay type: cell-based; details: drug-resistant strain CRKP
Text: as §2

[14] = test system: carbapenem-resistant Pseudomonas aeruginosa (CRPA); assay type: cell-based; details: drug-resistant strain CRPA
Text: as §2

[15] = test system: vancomycin-resistant Enterococcus (VRE); assay type: cell-based; details: drug-resistant strain VRE
Text: as §2

[16] = test system: Pseudomonas aeruginosa ATCC 27853; test: Injectable formulations on mice infected with peritonitis; assay type: in vivo, ICR mice; details: twice a day for 3 days; for Number of mice that died on each day after infection: day 1 / Number of mice that died on each day after infection: day 2 / Number of mice that died on each day after infection: day 3 / Number of mice that died on each day after infection: day 4 / Number of mice that died on each day after infection: day 5 / Average survival times (Days): n = 10; for Average survival times (Days): observed for 14 d
Description: Both female and male ICR mice were used in the test, half of the female and male mice were taken and randomly assigned into groups, with 10 mice in each group, and kept in separate cages. The mice were divided into a blank control group, a negative control group, a positive control Levofloxacin group, and AMPs LV-1 to LV-30 groups. A bacterial suspension of Pseudomonas aeruginosa ATCC 27853 was prepared, a concentration of the suspension was adjusted 1×10^9 CFU/mL for subsequent use. Except for the blank control group, all other mice were injected with the bacterial suspension (0.2 mL, 1×10^9 CFU/mL), into abdominal cavity of the mice, to establish a model. After the model was successfully established, the mice were given drug immediately according to their body weights. Except for the blank control group and the negative control group, the mice in all other groups were administered the corresponding injectable formulations via tail vein, twice a day for 3 consecutive days. The mice were then observed for 14 d. The death of mice in each group was observed, and survival time of the mice was recorded. Results of the effect of the injectable formulations of AMPs LV-1 to LV-30 on the survival time of mice infected with Pseudomonas aeruginosa are shown in Table 10.

Row | Substance | MIC Bacillus subtilis ATCC 6633 [1] | MIC Candida albicans ATCC MYA-2876 [2] | MIC Candida glabrata ATCC 15126 [3] | MIC Candida krusei ATCC 6258 (Candida krusei ATCC 6258) | MIC Candida utilis ATCC 9950 (Candida utilis ATCC 9950) | MIC Corynebacterium ATCC 7715 [4] | MIC Klebsiella pneumoniae ATCC 700603 [5] | MIC Pseudomonas aeruginosa ATCC 27853 [6] | MIC Salmonella typhimurium ATCC 14028 [7] | MIC Serratia marcescens ATCC 29021 [8] | MIC Staphylococcus aureus ATCC 25923 [9] | MIC Shigella flexneri ATCC 12022 [10] | MIC MRSA [11] | MIC CREC [12] | MIC CRKP [13] | MIC CRPA [14] | MIC VRE [15] | Number of mice that died on each day after infection: day 1 ([16]; 1 mg/kg via tail vein) | Number of mice that died on each day after infection: day 2 ([16]; 1 mg/kg via tail vein) | Number of mice that died on each day after infection: day 3 ([16]; 1 mg/kg via tail vein) | other results
1 | Ac-RKLLXRLKXRK-PEG200 [LV-26] (Ac-RKLL[2Nal]RLK[2Nal]RK-PEG200) [polyethylene glycol 200 conjugated to C-terminal; X=3-(2-naphthyl)-alanine] | 4 µg/mL | 8 µg/mL | 8 µg/mL | 4 µg/mL | 16 µg/mL | 2 µg/mL | 4 µg/mL | 4 µg/mL | 2 µg/mL | 8 µg/mL | 1 µg/mL | 4 µg/mL | 4 µg/mL | 8 µg/mL | 2 µg/mL | 4 µg/mL | 2 µg/mL | 1 Mouse | 1 Mouse | 1 Mouse | Number of mice that died on each day after infection: day 4 ([16]; 1 mg/kg via tail vein): 1 Mouse; Number of mice that died on each day after infection: day 5 ([16]; 1 mg/kg via tail vein): 1 Mouse; Average survival times (Days) ([16]; 1 mg/kg via tail vein): 8.5** Days
2 | Ac-RKLLXRLKXRK-PEG500 [LV-27] (Ac-RKLL[2Nal]RLK[2Nal]RK-PEG500) [polyethylene glycol 500 conjugated to C-terminal; X=3-(2-naphthyl)-alanine] | 2 µg/mL | 8 µg/mL | 8 µg/mL | 8 µg/mL | 16 µg/mL | 8 µg/mL | 8 µg/mL | 1 µg/mL | 2 µg/mL | 4 µg/mL | 1 µg/mL | 2 µg/mL | 8 µg/mL | 4 µg/mL | 4 µg/mL | 4 µg/mL | 8 µg/mL | 1 Mouse | 1 Mouse | 0 Mouse | Number of mice that died on each day after infection: day 1 ([16]; 0.2 mg/kg via tail vein): 2 Mouse; Number of mice that died on each day after infection: day 2 ([16]; 0.2 mg/kg via tail vein): 2 Mouse; Number of mice that died on each day after infection: day 3 ([16]; 0.2 mg/kg via tail vein): 0 Mouse; Number of mice that died on each day after infection: day 4 ([16]; 0.2 mg/kg via tail vein): 1 Mouse; Number of mice that died on each day after infection: day 5 ([16]; 0.2 mg/kg via tail vein): 1 Mouse; Average survival times (Days) ([16]; 0.2 mg/kg via tail vein): 7.1** Days; Number of mice that died on each day after infection: day 4 ([16]; 1 mg/kg via tail vein): 1 Mouse; Number of mice that died on each day after infection: day 5 ([16]; 1 mg/kg via tail vein): 0 Mouse; Average survival times (Days) ([16]; 1 mg/kg via tail vein): 10.5**** Days; Number of mice that died on each day after infection: day 1 ([16]; 5 mg/kg via tail vein): 0 Mouse; Number of mice that died on each day after infection: day 2 ([16]; 5 mg/kg via tail vein): 3 Mouse; Number of mice that died on each day after infection: day 3 ([16]; 5 mg/kg via tail vein): 0 Mouse; Number of mice that died on each day after infection: day 4 ([16]; 5 mg/kg via tail vein): 1 Mouse; Number of mice that died on each day after infection: day 5 ([16]; 5 mg/kg via tail vein): 0 Mouse; Average survival times (Days) ([16]; 5 mg/kg via tail vein): 9.4*** Days; survival time of mice infected with Pseudomonas aeruginosa ([16]; tail vein, observed 14 d): superior to those of the Levofloxacin group
